Literature values as cited in patent publication US20170216217A1, “SPHERICAL MICROCAPSULES WITH ENHANCED ORAL BIOAVAILABILITY” (I2O Pharma Ltd., priority 2016, published 2017).

SMILES: CN1CCN(C2=Nc3cc(Cl)ccc3Nc3ccccc32)CC1 [Clozapine]
- Oral bioavailability: 27%
